In ChEMBL document CHEMBL5226371, “Hyperhubeins A-I, Bioactive Sesquiterpenes with Diverse Skeletons from Hypericum hubeiense” (J Nat Prod, 2023):
pIC50: −log10 of the molar value. Calls of active or inactive are those of the source. The rule behind the calls is not given here.

Columns and labels:
[1] = tested on: PC-12; test: Neuroprotective activity against H2O2-induced cell injury in rat PC-12 cells assessed as increase in cell survival at 10 uM preincubated with compound for 24 hrs followed by H2O2 addition and measured after 24 hrs by MTT assay; assay type: functional, cell-based; conditions: time 48.0 hrs
[2] = Inhibition of NO production in LPS-induced mouse BV-2 cells incubated for 24 hrs by Griess reagent based microplate reader analysis; assay type: functional, cell-based; conditions: BV-2, 24 h
[3] = tested on: BV-2; test: Cytotoxicity against mouse BV-2 cells assessed as reduction in cell viability by MTT-based colorimetric method; assay type: toxicity
[4] = tested on: BV-2; test: Anti-neuroinflammatory activity in mouse BV-2 cells assessed as reduction in LPS-induced TLR-4 expression at 10 uM by Western blot analysis; assay type: functional, cell-based
[5] = tested on: BV-2; test: Anti-neuroinflammatory activity in mouse BV-2 cells assessed as reduction in LPS-induced iNOS expression at 10 uM by Western blot analysis; assay type: functional, cell-based
[6] = tested on: BV-2; test: Anti-neuroinflammatory activity in mouse BV-2 cells assessed as reduction in LPS-induced COX-2 expression at 10 uM by Western blot analysis; assay type: functional, cell-based
[7] = tested on: BV-2; test: Anti-neuroinflammatory activity in LPS-stimulated mouse BV-2 cells assessed as reduction in ratio of phosphorylated NF-kappaB to NFkappaB at 10 uM by Western blot analysis; assay type: functional, cell-based

| SMILES | Activity [1] | pIC50 [2] | Activity [3] | further results |
| --- | --- | --- | --- | --- |
| C=C1CCC[C@H]2[C@@H]1[C@@H](C(C)=O)C[C@H]2C(C)C | Active | 5.23 | Non-Toxic |  |
| C=C1CCC[C@H]2[C@@H]1[C@H](C(C)=O)C[C@H]2C(C)C | Active | 5.17 | Non-Toxic |  |
| C=C(C)[C@H]1CC[C@]2(C)O[C@H]2CC[C@@]2(C)O[C@@H]2C1 | Active |  |  |  |
| C=C1CC[C@H]2O[C@]2(C)CC[C@@H]2[C@@H]1CC2(C)C | Active |  |  |  |
| C=C(CO[C@@H]1O[C@H](CO)[C@@H](O)[C@H](O)[C@H]1O)[C@@H]1CC[C@@]2(O)CCC[C@@H](C)[C@]2(C)C1 | Active |  |  |  |
| O=c1c(O)c(-c2ccc(O)c(O)c2)oc2cc(O)cc(O)c12 [QUERCETIN] |  | 5.19 |  |  |
| C=C(C)[C@@H]1CC[C@@]2(C)[C@H](O)CC[C@@](C)(O)[C@@H]2C1 | Active |  |  |  |
| CC1=CC[C@H](O)[C@@]2(C)CC[C@H](C(C)(C)O[C@@H]3O[C@H](CO)[C@@H](O)[C@H](O)[C@H]3O)C[C@@H]12 | Active |  |  |  |
| C=C(C)[C@@H]1CCC2=C[C@H](OC)C[C@@H](C)[C@]2(C)C1 | Active |  |  |  |
| C=C1CCC(=O)[C@]2(C)CC[C@@H](C(C)C)[C@H](O)[C@@H]12 |  | 5.31 | Non-Toxic |  |
| C=C(C)[C@@H]1CC(=O)C2=CC(=O)C[C@@H](C)[C@]2(C)C1 |  | 5.21 | Non-Toxic | Activity [4]: Active; Activity [5]: Active; Activity [6]: Active; Activity [7]: Active |
